Results: US8829195B2, “Compounds and compositions for inhibiting the activity of ABL1, ABL2 and BCR-ABL1” (Novartis AG, priority 2012, dated 2014)

Legend:
ABL1 (64-515) [1] = target: T1, ABL1 (64-515) (Homo sapiens, UniProt P00519); test: Caliper ABL1 (64-515) microfluidic mobility shift assay; format: biochemical
T1 construct: 3.5 nM ABL (ABL(64-515), produced in-house from E. coli); His6 followed by a PreScission protease cleavage site (N, cleaved yes); made in house; host or cells: E. coli (BL21 (DE3) according to b733)

ABL1 (64-515) [2] = target: T1, ABL1 (64-515); test: Radio ABL1 (64-515) radiometric filter-binding assay; format: biochemical
[3] = target: T2, Ba/F3-BCR-ABL1-T315I cells (Homo sapiens, UniProt P00519, T315I, cells depend on it); test: Ba/F3-BCR-ABL1-T315I cell proliferation assay; format: cell-based, murine; details: 48 hours; read-out: Ba/F3-BCR-ABL1-T315I IC50
T2 construct: A similar approach was used to generate Ba/F3 cells that depend on a BCR-ABL1 variant in which threonine 315 is replaced with isoleucine; fused on or other part: P11274 (Breakpoint cluster region protein)

Ba/F3-BCR-ABL1-WT cells = target: T3, Ba/F3-BCR-ABL1-WT cells (Homo sapiens, UniProt P00519); test: Ba/F3-BCR-ABL1-WT cell proliferation assay; format: cell-based, murine; details: 48 hours; read-out: Ba/F3-BCR-ABL1-WT IC50
T3 construct: fused on or other part: P11274 (Breakpoint cluster region protein)

[4] = comparison of ortho substitution on R3/R4 ring

IC50 (ABL1 (64-515) [1]; [4]) [nM] | IC50 (ABL1 (64-515) [1]; Table of Biochemical Data) [nM] | IC50 (ABL1 (64-515) [2]) [nM] | GI50 [3] [nM] | GI50 (Ba/F3-BCR-ABL1-WT cells) [nM] | Compound
1600 |  |  |  |  | O=C(Nc1ccc(OC(F)(F)F)cc1Cl)c1cnc(N2CC[C@@H](O)C2)c(-c2ccn[nH]2)c1
1800 |  |  |  |  | Cc1cc(OC(F)(F)F)ccc1NC(=O)c1cnc(N2CC[C@@H](O)C2)c(-c2ccn[nH]2)c1
 | 2.2 | < 3 |  |  | O=C(Nc1ccc(OC(F)(F)F)cc1)c1ccc(N2CC[C@@H](O)C2)c(-c2ccn[nH]2)c1 [Example 1, (R)-4-(3-Hydroxypyrrolidin-1-yl)-3-(1H-pyrazol-5-yl)-N-(4-(trifluoromethoxy)phenyl)benzamide]
 | 0.7 | 4 | 133 | 7.5 | Cc1cc(-c2cc(C(=O)Nc3ccc(OC(F)(F)F)cc3)cnc2N2CC[C@@H](O)C2)[nH]n1 [Example 3, (R)-6-(3-Hydroxypyrrolidin-1-yl)-5-(3-methyl-1H-pyrazol-5-yl)-N-(4-(trifluoromethoxy)phenyl)nicotinamide]
 | 1.3 | 3.4 | 327 | 11.7 | Cc1cn[nH]c1-c1cc(C(=O)Nc2ccc(OC(F)(F)F)cc2)cnc1N1CC[C@@H](O)C1 [Example 4, (R)-6-(3-Hydroxypyrrolidin-1-yl)-5-(4-methyl-1H-pyrazol-5-yl)-N-(4-(trifluoromethoxy)phenyl)nicotinamide]
 | 1.2 | 7 | 134 | 8.1 | O=C(Nc1ccc(OC(F)(F)F)cc1)c1cnc(N2CC[C@@H](O)C2)c(-c2[nH]ncc2F)c1 [Example 5, (R)-5-(4-Fluoro-1H-pyrazol-5-yl)-6-(3-hydroxypyrrolidin-1-yl)-N-(4-(trifluoromethoxy)phenyl)nicotinamide]
 | 3.2 | 3 |  |  | Cn1cc(-c2cc(C(=O)Nc3ccc(OC(F)(F)F)cc3)cnc2N2CC[C@@H](O)C2)cn1 [Example 6, (R)-6-(3-Hydroxypyrrolidin-1-yl)-5-(1-methyl-1H-pyrazol-4-yl)-N-(4-(trifluoromethoxy)phenyl)nicotinamide]
 | 0.4 | < 3 | 132 | 6 | O=C(Nc1ccc(OC(F)(F)F)cc1)c1cnc(N2CC[C@H](CO)C2)c(-c2ccn[nH]2)c1 [Example 7, (S)-6-(3-(Hydroxymethyl)pyrrolidin-1-yl)-5-(1H-pyrazol-5-yl)-N-(4-(trifluoromethoxy)phenyl)nicotinamide]
 | 0.3 | < 0.13 | 44 | 1.9 | O=C(Nc1ccc(OC(F)(F)Cl)cc1)c1cnc(N2CC[C@H](CO)C2)c(-c2ccn[nH]2)c1 [Example 10, (S)—N-(4-(Chlorodifluoromethoxy)phenyl)-6-(3-(hydroxymethyl)pyrrolidin-1-yl)-5-(1H-pyrazol-5-yl)nicotinamide]
 | < 0.13 | < 3 | 38 | 1 | O=C(Nc1ccc(SC(F)(F)F)cc1)c1cnc(N2CC[C@@H](O)C2)c(-c2ccn[nH]2)c1 [Example 11, (R)-6-(3-Hydroxypyrrolidin-1-yl)-5-(1H-pyrazol-5-yl)-N-(4-((trifluoromethyl)thio)phenyl)nicotinamide]
 | 0.5 | 6 | 38 | 1.9 | O=C(Nc1ccc(SC(F)(F)F)cc1)c1cnc(N2CC[C@H](CO)C2)c(-c2ccn[nH]2)c1 [Example 12, (S)-6-(3-(Hydroxymethyl)pyrrolidin-1-yl)-5-(1H-pyrazol-5-yl)-N-(4-((trifluoromethyl)thio)phenyl)nicotinamide]
 | 0.6 | 10 | 150 | 9.6 | O=C(Nc1ccc(OC(F)(F)F)c(F)c1)c1cnc(N2CC[C@@H](O)C2)c(-c2ccn[nH]2)c1 [Example 13, (R)—N-(3-Fluoro-4-(trifluoromethoxy)phenyl)-6-(3-hydroxypyrrolidin-1-yl)-5-(1H-pyrazol-5-yl)nicotinamide]
 | 0.9 | 10 | 218 | 18.9 | O=C(Nc1ccc(OC(F)(F)F)c(F)c1)c1cnc(N2CC[C@H](CO)C2)c(-c2ccn[nH]2)c1 [Example 14, (S)—N-(3-Fluoro-4-(trifluoromethoxy)phenyl)-6-(3-(hydroxymethyl)pyrrolidin-1-yl)-5-(1H-pyrazol-5-yl)nicotinamide]
 | 0.3 | 11 | 31 | 1.9 | O=C(Nc1ccc(SC(F)(F)F)c(F)c1)c1cnc(N2CC[C@@H](O)C2)c(-c2ccn[nH]2)c1 [Example 15, (R)—N-(3-Fluoro-4-((trifluoromethyl)thio)phenyl)-6-(3-hydroxypyrrolidin-1-yl)-5-(1H-pyrazol-5-yl)nicotinamide]
 | < 0.13 | 12 | 92 | 4.1 | O=C(Nc1ccc(C(F)(F)C(F)(F)F)cc1)c1cnc(N2CC[C@@H](O)C2)c(-c2ccn[nH]2)c1 [Example 16, (R)-6-(3-Hydroxypyrrolidin-1-yl)-N-(4-(perfluoroethyl)phenyl)-5-(1H-pyrazol-5-yl)nicotinamide]
 | 2.4 | 3 | 199 | 15.5 | O=C(Nc1ccc(S(F)(F)(F)(F)F)cc1)c1cnc(N2CC[C@@H](O)C2)c(-c2ccn[nH]2)c1 [Example 17, (R)-6-(3-Hydroxypyrrolidin-1-yl)-N-(4-(pentafluorosulfanyl)phenyl)-5-(1H-pyrazol-5-yl)nicotinamide]
 | 0.2 | 2 | 32 | 1.5 | O=C(Nc1ccc(SC(F)(F)Cl)cc1)c1cnc(N2CC[C@@H](O)C2)c(-c2ccn[nH]2)c1 [Example 18, (R)—N-(4-((Chlorodifluoromethyl)thio)phenyl)-6-(3-hydroxypyrrolidin-1-yl)-5-(1H-pyrazol-5-yl)nicotinamide]
 | 1.8 | 5 | 236 | 13.5 | O=C(Nc1ccc(OC(F)(F)C(F)(F)F)cc1)c1cnc(N2CC[C@@H](O)C2)c(-c2ccn[nH]2)c1 [Example 19, (R)-6-(3-Hydroxypyrrolidin-1-yl)-N-(4-(perfluoroethoxy)phenyl)-5-(1H-pyrazol-5-yl)nicotinamide]
 | 0.4 | 1.3 |  |  | O=C(Nc1ccc(OC(F)(F)Cl)cc1)c1ccc(N2CC[C@@H](O)C2)c(-c2ccn[nH]2)c1 [Example 20, (R)—N-(4-(Chlorodifluoromethoxy)phenyl)-4-(3-hydroxypyrrolidin-1-yl)-3-(1H-pyrazol-5-yl)benzamide]
 | < 0.64 | 6 |  |  | Cc1cc(-c2cc(C(=O)Nc3ccc(OC(F)(F)Cl)cc3)ccc2N2CC[C@@H](O)C2)[nH]n1 [Example 22, (R)—N-(4-(Chlorodifluoromethoxy)phenyl)-4-(3-hydroxypyrrolidin-1-yl)-3-(3-methyl-1H-pyrazol-5-yl)benzamide]
 | 1.1 | 2 |  |  | Cn1nccc1-c1cc(C(=O)Nc2ccc(OC(F)(F)Cl)cc2)cnc1N1CC[C@@H](O)C1 [Example 27, (R)—N-(4-(Chlorodifluoromethoxy)phenyl)-6-(3-hydroxypyrrolidin-1-yl)-5-(1-methyl-1H-pyrazol-5-yl)nicotinamide]
 | 0.9 | 9 |  |  | O=C(Nc1ccc(OC(F)(F)Cl)cc1)c1cnc(N2CC[C@@H](O)C2)c(-c2cnn(CCO)c2)c1 [Example 29, (R)—N-(4-(Chlorodifluoromethoxy)phenyl)-5-(1-(2-hydroxyethyl)-1H-pyrazol-4-yl)-6-(3-hydroxypyrrolidin-1-yl)nicotinamide]
 | 13 | 3 |  |  | O=C(Nc1ccc(SC(F)(F)F)nc1)c1cnc(N2CC[C@@H](O)C2)c(-c2ccn[nH]2)c1 [Example 32, (R)-6-(3-Hydroxypyrrolidin-1-yl)-5-(1H-pyrazol-5-yl)-N-(6-((trifluoromethyl)thio)pyridin-3-yl)nicotinamide]
 | 2.1 |  | 71 | 1.9 | COC(=O)C1CCN(c2ncc(C(=O)Nc3ccc(OC(F)(F)Cl)cc3)cc2-c2ccn[nH]2)C1 (stereo not drawn) [Example 36, Methyl 1-(5-((4-(chlorodifluoromethoxy)phenyl)carbamoyl)-3-(1H-pyrazol-5-yl)pyridin-2-yl)pyrrolidine-3-carboxylate]
 | 0.5 |  |  |  | O=C(Nc1ccc(OC(F)(F)Cl)cc1)c1cnc(N2CCC(C(=O)O)C2)c(-c2ccn[nH]2)c1 (stereo not drawn) [Example 37]
 | 2.5 | 4 |  |  | CC(C)[C@H](N)C(=O)O[C@@H]1CCN(c2ncc(C(=O)Nc3ccc(OC(F)(F)Cl)cc3)cc2-c2ccn[nH]2)C1 [Example 38]
 | 1.3 | 3 |  |  | O=C(Nc1ccc(OC(F)(F)Cl)cc1)c1cnc(N2CC[C@@H](OP(=O)(O)O)C2)c(-c2ccn[nH]2)c1 [Example 39, (R)-1-(5-(4-(Chlorodifluoromethoxy)phenyl)carbamoyl)-3-(1H-pyrazol-5-yl)pyridin-2-yl)pyrrolidin-3-yl dihydrogen phosphate]
 | 2.1 |  |  |  | O=C(Nc1ccc(OC(F)(F)F)cc1)c1cnc(N2CC[C@@H](OP(=O)(O)O)C2)c(-c2ccn[nH]2)c1 [Example 40, (R)-1-(3-(1H-Pyrazol-5-yl)-5-(4-(trifluoromethoxy)phenyl)carbamoyl)pyridin-2-yl)pyrrolidin-3-yl dihydrogen phosphate]
